Results on seven compounds are retold here after patent publication US11673876B2, “Substituted aminobenzyl heteroaryl compounds as EGFR and/or PI3K inhibitors” (Mekanistic Therapeutics LLC, priority 2020, dated 2023).

Converted amounts (≈) assume the structure as drawn.

Data set [1] in a line: Solubility determination (PBS 7.4, SIF, SGF). The settings on record: simulated intestinal fluid (SIF), kinetic from dmso stock; simulated intestinal fluid pH 6.8, 25° C., 2 hours; read-out: Solubility SIF. Type of data set: physicochemical. As for the experimental part:
Preparation of stock solutions: The stock solutions of test compounds and control compound diclofenac were prepared in DMSO at the concentrations of 10 mM.
Simulated Gastric Fluid (SGF): An aqueous mixture including hydrochloric acid, sodium chloride, and pepsin (pH=1.2).
Simulated Intestinal Fluid (SIF): Prepared by dissolving 6.8 g of KH2PO4 into about 500 mL ultrapure water and adjust the solution to a pH 6.8 with 0.1 M NaOH. 10 g trypsin is then dissolved into ultrapure water. The two solutions are mixed well and diluted with ultrapure water to a final volume of 1000 mL.
485 μL of (SIF, SGF, PBS 7.4, FESSIF, or FESSGF) was added into each vial of the cap-less Solubility Sample plate. The assay was performed in duplicate. Add one stir stick to each vial and seal using a molded PTFE/Silicone plug. […] After completion of the 2 hours, plugs were removed and the stir sticks were removed using a big magnet, the samples from the Solubility Sample plate were transferred into the filter plate. Using the Vacuum Manifold, all the samples were filtered. Aliquot of 5 μL and 5 μL DMSO were taken from the filtrate followed by addition of 490 μL of a mixture of H2O and acetonitrile containing internal standard (1:1). A certain proportion of ultrapure water was used to dilute the diluent according to the peak shape. The dilution factor was changed according to the solubility values and the LC-MS signal response.
Preparation of 300 μM standards (STD): From the 10 mM DMSO STD plate, 6 μL was transferred into the remaining empty plate, and then 194 μL of DMSO was added to that plate to have a STD concentration of 300 μM. From the 300 μM DMSO STD plate, 5 μL DMSO STD and 5 μL SIF was transferred into the remaining empty plate, and then 490 μL of a mixture of H2O and acetonitrile containing internal standard (1:1) was added to that plate to have a final STD concentration of 3 μM. A certain proportion of ultrapure water was used to dilute the diluent according to the peak shape. The concentrations of the standard samples were changed according to the LC-MS signal response.
Procedure for sample analysis: The plate was placed into the well plate autosampler. The samples were evaluated by LC-MS/MS analysis.
Data analysis: All calculations were carried out using Microsoft Excel. The filtrate was analyzed and quantified against a standard of known concentration using LC coupled with mass spectral peak identification and quantitation. Solubility values of the test compound and control compound were calculated as follows: […]
Any value of the compounds that was not within the specified limits was rejected and the experiment was repeated.

Another data set has as its target DNA-PK (Homo sapiens (Human), UniProt P78527). The data set can be described thus: Z'-LYTE / Adapta kinase assay, DNA-PK. Type of data set: biochemical. The settings on record: for inhibition at 0.1 µM: read-out: DNA-PK % Inh. @ 100 nM. An excerpt: (§1) The Z′-LYTE® biochemical assay employs a fluorescence-based, coupled-enzyme format and is based on the differential sensitivity of phosphorylated and non-phosphorylated peptides to proteolytic cleavage (FIG. 6). The peptide substrate is labeled with two fluorophores one at each end—that make up a FRET pair. In the primary reaction, the kinase transfers the gamma-phosphate of ATP to a single tyrosine, serine or threonine residue in a synthetic FRET-peptide. In the secondary reaction, a site-specific protease recognizes and cleaves non-phosphorylated FRET-peptides. Phosphorylation of FRET-peptides suppresses cleavage by the Development Reagent. Cleavage disrupts FRET between the donor (i.e., coumarin) and acceptor (i.e., fluorescein) fluorophores on the FRET-peptide, whereas uncleaved, phosphorylated FRET-peptides maintain FRET. A ratiometric method, which calculates the ratio (the Emission Ratio) of donor emission to acceptor emission after excitation of the donor fluorophore at 400 nm, is used to quantitate reaction progress.
(§2) A significant benefit of this ratiometric method for quantitating reaction progress is the elimination of well-to-well variations in FRET-peptide concentration and signal intensities. As a result, the assay yields very high Z′-factor values (>0.7) at a low percent phosphorylation.
(§3) Both cleaved and uncleaved FRET-peptides contribute to the fluorescence signals and therefore to the Emission Ratio. The extent of phosphorylation of the FRET-peptide can be calculated from the Emission Ratio.
(§4) Enzyme: The ADAPTA universal kinase assay is a homogenous, fluorescent based immunoassay for the detection of ADP. In contrast to ATP depletion assays, the ADAPTA assay is extremely sensitive to ADP formation such that a majority of the signal change occurs in the first 10-20% conversion of ATP to ADP. This makes the ADAPTA universal kinase assay ideally suited for use with low activity kinases.
(§5) The principle of the ADAPTA universal kinase assay is outlined below. The assay itself can be divided into two phases: a kinase reaction phase, and an ADP detection phase. In the kinase reaction phase, all components required for the kinase reaction are added to the well, and the reaction is allowed to incubate for 60 minutes.
(§6) Z′-LYTE® Assay Conditions:
(§7) Test Compounds: The Test Compounds are screened in 1% DMSO (final) in the well. For 10 point titrations, 3-fold serial dilutions are conducted from the starting concentration.
(§8) Peptide/Kinase Mixtures: All Peptide/Kinase Mixtures are diluted to a 2× working concentration in the appropriate Kinase Buffer.
(§9) ATP Solution: All ATP Solutions are diluted to a 4× working concentration in Kinase Buffer (50 mM HEPES pH 7.5, 0.01% BRIJ-35, 10 mM MgCl2, 1 mM EGTA). ATP Km apparent is previously determined using a Z′-LYTE® assay.
(§10) Development Reagent Solution: The Development Reagent is diluted in Development Buffer. […]
(§11) 2.5 μL—4× Test Compound or 100 nL 100× plus 2.4 μL kinase buffer. 2. 5 μL—2× Peptide/Kinase Mixture. 3. 2.5 μL—4× ATP Solution. 4. 30-second plate shake. 5. 60-minute Kinase Reaction incubation at room temperature. 6. 5 μL—Development Reagent Solution. 7. 30-second plate shake. 8. 60-minute Development Reaction incubation at room temperature. 9.

In a further data set the target is PI3Ka (Homo sapiens (Human), UniProt P42336). The data set can be described thus: Z'-LYTE / Adapta kinase assay, PI3Ka. The settings on record: for inhibition at 0.1 µM: read-out: PI3Ka % Inh. @ 100 nM. The data set is classed as biochemical.
Excerpt: as §1, §2, §3, §4, §5, §6, §7, §8, §9, §10, §11

A further data set has as its target EGFR (Homo sapiens (Human), UniProt P00533). The data set can be described thus: Z'-LYTE / Adapta kinase assay, EGFR. Type of data set: biochemical. The settings on record: for inhibition at 0.1 µM: read-out: EGFR % Inh. @ 100 nM.
Excerpt: as §1, §2, §3, §4, §5, §6, §7, §8, §9, §10, §11

Data set [2] is described as follows: Metabolic stability in human liver microsomes. The data set is classed as in vitro ADME. As for the experimental part: (§12) Working solution: 5 μL of compound and control stock solution (10 mM in dimethyl sulfoxide (DMSO)) were diluted with 495 μL of acetonitrile (ACN) (intermediate solution concentration: 100 μM, 99% ACN)
(§13) NADPH Cofactor Preparation: NADPH powder: β-Nicotinamide adenine dinucleotide phosphate reduced form, tetrasodium salt; NADPH·4Na. The appropriate amount of NADPH powder was weighed and diluted into a 10 mM MgCl2 solution (working solution concentration: 10 unit/mL; final concentration in reaction system: 1 unit/mL)
(§14) Liver Microsomes Preparation: The appropriate concentrations of microsome working solutions were prepared in 100 mM potassium phosphate buffer. Cold (4° C.) acetonitrile (ACN) containing 200 ng/mL tolbutamide and 200 ng/mL labetalol as internal standards (1S) was used as the stop solution
(§15) Assay Procedure: Pre-warm empty ‘Incubation’ plates T60 and NCF60 for 10 minutes. Dilute liver microsomes to 0.56 mg/mL in 100 mM phosphate buffer. Transfer 445 μL microsome working solutions (0.56 mg/mL) into pre-warmed ‘Incubation’ plates T60 and NCF60, Then pre-incubate ‘Incubation’ plates T60 and NCF60 for 10 min at 37° C. with constant shaking. Transfer 54 μL liver microsomes to blank plate, then add 6 μL NAPDH cofactor to blank plate, and then add 180 μL quenching solution to blank plate. Add 5 μL compound working solution (100 μM) into ‘incubation’ plates (T60 and NCF60) containing microsomes and mix 3 times thoroughly.
(§16) For the NCF60 plate, add 50 μL of buffer and mix 3 times thoroughly. Start timing; plate will be incubated at 37° C. for 60 min while shaking. In ‘Quenching’ plate T0, add 180 μL quenching solution and 6 μL NAPDH cofactor. Ensure the plate is chilled to prevent evaporation. For the T60 plate, mix 3 times thoroughly, and immediately remove 54 μL mixture for the 0-min time point to ‘Quenching’ plate. Then add 44 μL NAPDH cofactor to incubation plate (T60). Start timing; plate will be incubated at 37° C. for 60 min while shaking. At 5, 10, 20, 30, and 60 min, add 180 μL quenching solution to ‘Quenching’ plates, mix once, and serially transfer 60 μL sample from T60 plate per time point to ‘Quenching’ plates. For NCF60: mix once, and transfer 60 μL sample from the NCF60 incubation to ‘Quenching’ plate containing quenching solution at the 60-min time point. All sampling plates are shaken for 10 min, then centrifuged at 4000 rpm for 20 minutes at 4° C. Transfer 80 μL supernatant into 240 μL HPLC water, and mix by plate shaker for 10 min. Each bioanalysis plate was sealed and shaken for 10 minutes prior to LC-MS/MS analysis.
(§17) The equation of first order kinetics was used to calculate T½ and CLint(mic) (μL/min/mg). Equation of first order kinetics: […]
(§18) The biological stability of the compounds of the disclosure can be measured by determining its ½ life in the presence microsomes. Presented in Table 5, is the ½ life of selected compounds of the disclosure in the presence of human liver microsomes (HLM) or mouse liver microsomes (MLM) as described above. In Table 5, ½ life is presented as “++++” (value is greater than 60 minutes), “+++” (value is greater than 30 minutes and less than or equal to 60 minutes), “++” (value is greater than 15 minutes and less than or equal to 30 minutes) and “+” (value is 15 minutes or less).
Background: Liver microsomes are vesicles of endoplasmic reticulum, rich in cytochrome P450 enzymes.

A short description of data set [3]: Metabolic stability in mouse liver microsomes. Type of data set: in vitro ADME. As for the experimental part: as §12, §13, §14, §15, §16, §17, §18

Sequence of PI3Ka (P42336 whole entry): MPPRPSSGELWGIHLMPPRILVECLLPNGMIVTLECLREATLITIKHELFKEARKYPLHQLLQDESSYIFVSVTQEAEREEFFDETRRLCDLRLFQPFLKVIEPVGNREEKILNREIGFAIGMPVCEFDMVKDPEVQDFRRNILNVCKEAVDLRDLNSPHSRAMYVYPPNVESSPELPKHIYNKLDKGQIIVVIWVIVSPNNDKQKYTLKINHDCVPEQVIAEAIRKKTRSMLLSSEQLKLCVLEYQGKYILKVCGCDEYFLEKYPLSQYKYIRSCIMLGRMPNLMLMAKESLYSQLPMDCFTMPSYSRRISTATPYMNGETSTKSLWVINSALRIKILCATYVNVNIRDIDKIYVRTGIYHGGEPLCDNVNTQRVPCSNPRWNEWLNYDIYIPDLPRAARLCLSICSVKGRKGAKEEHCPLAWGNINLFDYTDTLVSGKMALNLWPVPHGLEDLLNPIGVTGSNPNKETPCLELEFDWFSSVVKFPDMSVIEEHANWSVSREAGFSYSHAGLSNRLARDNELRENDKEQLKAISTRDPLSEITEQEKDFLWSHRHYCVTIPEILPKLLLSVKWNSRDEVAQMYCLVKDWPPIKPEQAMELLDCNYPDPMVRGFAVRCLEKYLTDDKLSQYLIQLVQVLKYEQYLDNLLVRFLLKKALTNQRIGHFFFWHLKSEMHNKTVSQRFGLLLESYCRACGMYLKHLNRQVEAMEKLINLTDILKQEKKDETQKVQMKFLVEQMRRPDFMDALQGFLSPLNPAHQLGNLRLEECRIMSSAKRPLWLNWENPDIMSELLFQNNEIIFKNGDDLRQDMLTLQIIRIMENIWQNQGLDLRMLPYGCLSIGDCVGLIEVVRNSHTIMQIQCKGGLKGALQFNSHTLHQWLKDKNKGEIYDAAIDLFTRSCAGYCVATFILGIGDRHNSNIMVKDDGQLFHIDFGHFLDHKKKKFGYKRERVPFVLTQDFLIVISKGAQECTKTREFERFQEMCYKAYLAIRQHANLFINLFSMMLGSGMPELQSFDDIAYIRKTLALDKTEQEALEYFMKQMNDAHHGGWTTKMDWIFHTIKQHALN
Sequence of PI3Ka (P27986 whole entry partner): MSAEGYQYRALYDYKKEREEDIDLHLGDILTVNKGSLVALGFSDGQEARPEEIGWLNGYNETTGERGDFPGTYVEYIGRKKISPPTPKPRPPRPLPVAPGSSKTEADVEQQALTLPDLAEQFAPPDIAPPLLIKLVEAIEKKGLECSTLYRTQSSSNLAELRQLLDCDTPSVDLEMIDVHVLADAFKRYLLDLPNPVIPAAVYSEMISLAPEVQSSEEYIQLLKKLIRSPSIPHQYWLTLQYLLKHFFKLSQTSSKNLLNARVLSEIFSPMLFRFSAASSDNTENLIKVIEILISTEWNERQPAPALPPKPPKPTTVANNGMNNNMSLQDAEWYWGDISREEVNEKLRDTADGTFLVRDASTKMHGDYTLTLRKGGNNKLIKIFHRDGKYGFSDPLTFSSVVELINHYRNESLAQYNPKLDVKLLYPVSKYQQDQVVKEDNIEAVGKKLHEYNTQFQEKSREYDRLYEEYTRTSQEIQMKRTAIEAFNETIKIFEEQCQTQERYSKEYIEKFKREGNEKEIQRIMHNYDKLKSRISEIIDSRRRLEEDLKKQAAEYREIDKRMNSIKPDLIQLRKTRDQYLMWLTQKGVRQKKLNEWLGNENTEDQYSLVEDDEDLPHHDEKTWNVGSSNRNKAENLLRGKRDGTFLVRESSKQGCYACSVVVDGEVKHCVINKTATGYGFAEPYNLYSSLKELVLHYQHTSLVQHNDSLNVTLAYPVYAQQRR
Sequence of EGFR (P00533 25-1210): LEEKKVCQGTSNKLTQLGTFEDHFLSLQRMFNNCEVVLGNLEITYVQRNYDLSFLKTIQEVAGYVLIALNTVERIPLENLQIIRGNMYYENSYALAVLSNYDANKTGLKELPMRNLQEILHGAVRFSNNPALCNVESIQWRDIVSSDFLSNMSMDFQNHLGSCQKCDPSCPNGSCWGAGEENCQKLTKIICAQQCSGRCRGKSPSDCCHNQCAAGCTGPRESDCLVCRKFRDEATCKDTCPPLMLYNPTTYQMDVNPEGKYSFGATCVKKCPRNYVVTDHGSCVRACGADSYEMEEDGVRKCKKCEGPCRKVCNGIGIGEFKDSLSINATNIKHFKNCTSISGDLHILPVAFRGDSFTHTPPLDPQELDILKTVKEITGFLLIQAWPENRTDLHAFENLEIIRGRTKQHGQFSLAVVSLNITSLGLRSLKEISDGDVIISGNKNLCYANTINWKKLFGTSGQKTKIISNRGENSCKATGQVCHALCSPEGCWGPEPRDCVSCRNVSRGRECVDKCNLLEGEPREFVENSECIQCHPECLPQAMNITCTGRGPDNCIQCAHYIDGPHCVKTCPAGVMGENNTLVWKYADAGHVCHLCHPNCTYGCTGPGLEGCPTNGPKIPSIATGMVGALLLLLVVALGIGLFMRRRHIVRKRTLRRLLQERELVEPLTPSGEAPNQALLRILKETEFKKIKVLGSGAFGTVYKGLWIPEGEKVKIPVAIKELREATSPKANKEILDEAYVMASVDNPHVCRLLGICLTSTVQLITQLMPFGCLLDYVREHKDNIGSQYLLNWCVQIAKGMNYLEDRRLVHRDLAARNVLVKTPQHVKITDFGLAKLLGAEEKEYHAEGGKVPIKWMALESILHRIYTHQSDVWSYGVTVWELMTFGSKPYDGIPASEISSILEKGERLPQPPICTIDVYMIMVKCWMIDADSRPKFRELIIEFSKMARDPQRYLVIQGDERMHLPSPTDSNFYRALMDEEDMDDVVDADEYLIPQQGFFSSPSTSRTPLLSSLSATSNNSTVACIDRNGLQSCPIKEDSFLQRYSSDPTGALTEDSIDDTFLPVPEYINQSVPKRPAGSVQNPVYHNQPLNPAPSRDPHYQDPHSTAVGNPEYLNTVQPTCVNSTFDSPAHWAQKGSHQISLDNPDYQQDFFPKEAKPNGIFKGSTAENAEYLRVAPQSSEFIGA

A word on the solubility: it is the dissolved amount per volume that the medium holds. For `CC(Nc1ncnc2ccc(-c3cnc(N)nc3)cc12)c1ccccc1` (centres unmarked) [Compound 7, 6-(2-aminopyrimidin-5-yl)-N-(1-phenylethyl)quinazolin-4-amine], the solubility at 2 h in data set [1] is 20 to 100 µM (≈ 6.85 to 34.2 µg/mL). Moreover, the inhibition at 0.1 µM at DNA-PK lay within 10 to 80%; at PI3Ka, 10 to 80%; at EGFR, 80 to 90%.
One may read the IC50 as the point on the concentration scale where inhibition reaches its midpoint. Read a high IC50 as a need for much substance. As for `COc1cc(-c2ccc3ncnc(NC(C)c4ccccc4)c3c2)cnc1OC` (centres unmarked) [Compound 22, 6-(5,6-dimethoxy-3-pyridyl)-N-(1-phenylethyl) quinazolin-4-amine], in data set [1], the solubility at 2 h was 20 to 100 µM (≈ 7.73 to 38.6 µg/mL). Further, at DNA-PK, the IC50 is greater than 200 nM and the inhibition at 0.1 µM is 10 to 80%. On PI3Ka, the concentration for half-maximal inhibition (IC50) fell in the range of 20 to 200 nM and the inhibition at 0.1 µM was 10 to 80%.
Take `CC(Nc1c(C#N)cnc2ccc(-c3cnc(Cl)c(NS(C)(=O)=O)c3)cc12)c1ccccc1` (centres unmarked) [Compound 48, N-[2-chloro-5-[3-cyano-4-(1-phenylethylamino)-6-quinolyl]-3-pyridyl]methanesulfonamide]: the “½ life minutes (HLM)” value in data set [2] is “++++ (value is greater than 60 minutes)”. Moreover, the “½ life minutes (MLM)” value in data set [3] is recorded as “++++ (value is greater than 60 minutes)”. Moreover, the inhibition at 0.1 µM at DNA-PK was greater than 90%; at PI3Ka, greater than 90%; on EGFR, 80 to 90%.
As for `C[C@@H](Nc1c(C#N)cnc2ccc(-c3cnc(Cl)c(NS(C)(=O)=O)c3)cc12)c1ccccc1` [Compound 48R, N-(2-chloro-5-(3-cyano-4-((1R-phenylethyl)amino)quinolin-6-yl)pyridin-3-yl)methanesulfonamide], the “½ life minutes (HLM)” value in data set [2] was “+++ (value is greater than 30 minutes and less than or equal to 60 minutes)”. Further, in data set [3], the “½ life minutes (MLM)” value is on record as “++++ (value is greater than 60 minutes)”. Also, the inhibition at 0.1 µM at DNA-PK, on PI3Ka and on EGFR was greater than 90% throughout. This compound registered an IC50 against EGFR of 2 to 20 nM.
Regarding `C[C@@H](Nc1c(C#N)cnc2ccc(-c3cnc(Cl)c(NS(C)(=O)=O)c3)cc12)c1ccc(F)cc1` [Compound 97R, N-[2-chloro-5-[3-cyano-4-[[(1R)-1-(4-fluorophenyl)ethyl]amino]-6-quinolyl]-3-pyridyl]methanesulfonamide], in data set [2], the “½ life minutes (HLM)” value is listed as “++++ (value is greater than 60 minutes)”. In addition, the “½ life minutes (MLM)” value in data set [3] is recorded as “++++ (value is greater than 60 minutes)”. Besides, the inhibition at 0.1 µM on DNA-PK is greater than 90%; on EGFR, 10 to 80%.
Turning to `CS(=O)(=O)Nc1cc(-c2ccc3ncc(C#N)c(NC4(c5ccccc5)CC4)c3c2)cnc1Cl` [Compound 106, N-[2-chloro-5-[3-cyano-4-[(1-phenylcyclopropyl)amino]-6-quinolyl]-3-pyridyl]methanesulfonamide], the “½ life minutes (HLM)” value in data set [2] is listed as “++++ (value is greater than 60 minutes)”. Moreover, the “½ life minutes (MLM)” value in data set [3] was “+++ (value is greater than 30 minutes and less than or equal to 60 minutes)”. For the same compound, the inhibition at 0.1 µM on DNA-PK was greater than 90%; on EGFR it was 10 to 80%.
As to `CC(Nc1c(C#N)cnc2ccc(-c3cncc(-c4n[nH]c(=O)o4)c3)cc12)c1ccccc1` (centres unmarked) [Compound 129, 6-[5-(2-oxo-3H-1,3,4-oxadiazol-5-yl)-3-pyridyl]-4-(1-phenylethylamino) quinoline-3-carbonitrile], the solubility at 2 h in data set [1] is no more than 20 µM. The IC50 at DNA-PK is 2 to 20 nM; at PI3Ka it was 20 to 200 nM; against EGFR, 2 to 20 nM. Moreover, the inhibition at 0.1 µM on DNA-PK lay within 80 to 90%; at PI3Ka, 10 to 80%; at EGFR, 80 to 90%.
